Data reported in patent US20250171498A1, “ANTIBIOTIC COMPOUNDS, FORMULATIONS AND METHODS OF USE” (UNIVERSITEIT LEIDEN, priority 2022, published 2025).
Converted amounts (≈) assume the structure as drawn. *1 amine or outer side, *2 acyl side, *3 side chain or, on linkers, in order; H or OH if unused. Where a SMILES comes first, the peptide text is derived from it. Bridges are numbered along the chain shown (N, C = ends). [ ]: non-standard residue; d: D form. The star is where a group is joined. Phenylthio(4-OPh) = c1ccc(Oc2ccc(S*)cc2)cc1; X1 = CC(C)CCCCC[C@@H](N[*:1])C(=O)[*:2]; S(2-cyclohexylethyl) = C1CCC(CCS*)CC1; dPen = CC(C)(S)[C@@H](N)C(=O)O; X3 = O=C(OCCSSCc1cccc(Cl)c1)*; S(3-Methylbutyl) = CC(C)CCS*; X4 = c1ccc(-c2ccc(S*)cc2)cc1; dDab = NCC[C@@H](N)C(=O)O; dDap = NC[C@@H](N)C(=O)O; Dab = NCC[C@H](N)C(=O)O; X2 = CC(C)CCSSCCOC(=O)*; Dap = NC[C@H](N)C(=O)O; X5 = CC(C)CCCCS*; Mpa = O=C(O)CCS

Key:
Type in all cases: cell-based
[1] = tested on: A. Baumanni (ATCC 19606); details: ATCC 19606
Experimental: (§1) Compounds were prepared according to scheme 2, 3, 4, 6, 7, or 8 above, preparing different sets of compounds with different substitution patterns. All polymyxin analogues prepared were tested for their anti-bacterial activity on relevant Gram-negative strains (Table B). Polymyxin B and PMBN were taken along as references. In addition, the toxicity on renal Proximal Tubular Epithelial Cells (PTECs) was evaluated.
(§2) 3rd Generation compounds were also subjected to testing for their anti-bacterial activity on relevant Gram-negative strains (Table C). Polymyxin B and PMBN were taken along as references. In addition, the toxicity on renal Proximal Tubular Epithelial Cells (PTECs) was evaluated, see Table C.

[2] = tested on: E. Coli (ATCC 25922); details: ATCC 25922
Experimental: as §1, §2

[3] = tested on: K. Pneumoniae (ATCC 13883); details: ATCC 13883
Experimental: as §1, §2

[4] = tested on: P. Aeruginosa (ATCC 27853); details: ATCC 27853
Experimental: as §1, §2

[5] = tested on: renal Proximal Tubular Epithelial Cells (PTECs); experiment: Toxicity on renal Proximal Tubular Epithelial Cells
Experimental: as §1, §2

SMILES | MIC A. Baumanni (ATCC 19606) [1] | MIC E. Coli (ATCC 25922) [2] | MIC K. Pneumoniae (ATCC 13883) [3] | MIC P. Aeruginosa (ATCC 27853) [4] | PTEC Toxicity (relative to polymyxin B) [5]
CC(C)CCCCC[C@@H](N)C(=O)N[C@H](C(=O)N[C@@H](CN)C(=O)N[C@H]1CCNC(=O)[C@H]([C@@H](C)O)NC(=O)[C@H](CCN)NC(=O)[C@H](CCN)NC(=O)[C@H](CC(C)C)NC(=O)[C@@H](Cc2ccccc2)NC(=O)[C@H](CCN)NC1=O)[C@@H](C)O (H-[X1]T[Dap][Dab][Dab][dF]L[Dab][Dab]T; lactam 4-C) | 0.25 µg/mL (≈ 0.224 µM) | 1 µg/mL (≈ 0.894 µM) | 0.25 µg/mL (≈ 0.224 µM) | 1 µg/mL (≈ 0.894 µM) | 7.8
CC(C)C[C@@H]1NC(=O)[C@@H](Cc2ccccc2)NC(=O)[C@H](CCN)NC(=O)[C@@H](NC(=O)CNC(=O)[C@@H](NC(=O)[C@H](N)CSSCCC2CCCCC2)[C@@H](C)O)CCNC(=O)[C@H]([C@@H](C)O)NC(=O)[C@H](CCN)NC(=O)[C@H](CCN)NC1=O (H-[dC](S(2-cyclohexylethyl))TG[Dab][Dab][dF]L[Dab][Dab]T; lactam 4-C) | 0.5 µg/mL (≈ 0.429 µM) | 2 µg/mL (≈ 1.72 µM) | 1 µg/mL (≈ 0.858 µM) | 2 µg/mL (≈ 1.72 µM) | 7.4
CC(C)C[C@@H]1NC(=O)[C@@H](Cc2ccccc2)NC(=O)[C@H](CCN)NC(=O)[C@@H](NC(=O)[C@H](CN)NC(=O)[C@@H](NC(=O)[C@H](N)CSSCCC2CCCCC2)[C@@H](C)O)CCNC(=O)[C@H]([C@@H](C)O)NC(=O)[C@H](CCN)NC(=O)[C@H](CCN)NC1=O (H-[dC](S(2-cyclohexylethyl))T[Dap][Dab][Dab][dF]L[Dab][Dab]T; lactam 4-C) | 0.5 µg/mL (≈ 0.419 µM) | 1 µg/mL (≈ 0.837 µM) | 1 µg/mL (≈ 0.837 µM) | 2 µg/mL (≈ 1.67 µM) | 2.9
CC(C)C[C@@H]1NC(=O)[C@@H](Cc2ccccc2)NC(=O)[C@H](CCN)NC(=O)[C@@H](NC(=O)[C@@H](CCN)NC(=O)[C@@H](NC(=O)[C@H](N)CSSCCC2CCCCC2)[C@@H](C)O)CCNC(=O)[C@H]([C@@H](C)O)NC(=O)[C@H](CCN)NC(=O)[C@H](CCN)NC1=O (H-[dC](S(2-cyclohexylethyl))T[dDab][Dab][Dab][dF]L[Dab][Dab]T; lactam 4-C) | 0.5 µg/mL (≈ 0.414 µM) | 2 µg/mL (≈ 1.65 µM) | 1 µg/mL (≈ 0.827 µM) | 2 µg/mL (≈ 1.65 µM) | 4.8
CC(C)CCSSC(C)(C)[C@@H](N)C(=O)N[C@H](C(=O)N[C@@H](CCN)C(=O)N[C@H]1CCNC(=O)[C@H]([C@@H](C)O)NC(=O)[C@H](CCN)NC(=O)[C@H](CCN)NC(=O)[C@H](CC(C)C)NC(=O)[C@@H](Cc2ccccc2)NC(=O)[C@H](CCN)NC1=O)[C@@H](C)O (H-[dPen](S(3-Methylbutyl))T[Dab][Dab][Dab][dF]L[Dab][Dab]T; lactam 4-C) | 4 µg/mL (≈ 3.34 µM) | 2 µg/mL (≈ 1.67 µM) | 2 µg/mL (≈ 1.67 µM) | 2 µg/mL (≈ 1.67 µM) | 
CC(C)CCSSC(C)(C)[C@@H](N)C(=O)N[C@H](C(=O)N[C@@H](CCN)C(=O)N[C@H]1CCNC(=O)[C@H]([C@@H](C)O)NC(=O)[C@H](CCN)NC(=O)[C@H](CCN)NC(=O)[C@H](CC(C)C)NC(=O)[C@@H](CC(C)C)NC(=O)[C@H](CCN)NC1=O)[C@@H](C)O (H-[dPen](S(3-Methylbutyl))T[Dab][Dab][Dab][dL]L[Dab][Dab]T; lactam 4-C) | 4 µg/mL (≈ 3.44 µM) | 2 µg/mL (≈ 1.72 µM) | 2 µg/mL (≈ 1.72 µM) | 2 µg/mL (≈ 1.72 µM) | 
CC(C)CCSSC(C)(C)[C@@H](N)C(=O)N[C@H](C(=O)N[C@@H](CN)C(=O)N[C@H]1CCNC(=O)[C@H]([C@@H](C)O)NC(=O)[C@H](CCN)NC(=O)[C@H](CCN)NC(=O)[C@H](CC(C)C)NC(=O)[C@@H](Cc2ccccc2)NC(=O)[C@H](CCN)NC1=O)[C@@H](C)O (H-[dPen](S(3-Methylbutyl))T[Dap][Dab][Dab][dF]L[Dab][Dab]T; lactam 4-C) | 1 µg/mL (≈ 0.846 µM) | 2 µg/mL (≈ 1.69 µM) | 1 µg/mL (≈ 0.846 µM) | 2 µg/mL (≈ 1.69 µM) | 
CC(C)CCSSC(C)(C)[C@@H](N)C(=O)N[C@H](C(=O)N[C@@H](CN)C(=O)N[C@H]1CCNC(=O)[C@H]([C@@H](C)O)NC(=O)[C@H](CCN)NC(=O)[C@H](CCN)NC(=O)[C@H](CC(C)C)NC(=O)[C@@H](CC(C)C)NC(=O)[C@H](CCN)NC1=O)[C@@H](C)O (H-[dPen](S(3-Methylbutyl))T[Dap][Dab][Dab][dL]L[Dab][Dab]T; lactam 4-C) | 2 µg/mL (≈ 1.74 µM) | 2 µg/mL (≈ 1.74 µM) | 1 µg/mL (≈ 0.871 µM) | 2 µg/mL (≈ 1.74 µM) | 
CC(C)CCSSCCOC(=O)N[C@H](C(=O)N[C@@H](CCN)C(=O)N[C@H]1CCNC(=O)[C@H]([C@@H](C)O)NC(=O)[C@H](CCN)NC(=O)[C@H](CCN)NC(=O)[C@H](CC(C)C)NC(=O)[C@@H](Cc2ccccc2)NC(=O)[C@H](CCN)NC1=O)[C@@H](C)O (X2-T[Dab][Dab][Dab][dF]L[Dab][Dab]T; lactam 3-C) |  | 8 µg/mL (≈ 6.84 µM) | 8 µg/mL (≈ 6.84 µM) | 2 µg/mL (≈ 1.71 µM) | 0.9
CC(C)CCSSCCOC(=O)N[C@H](C(=O)N[C@H](CN)C(=O)N[C@H]1CCNC(=O)[C@H]([C@@H](C)O)NC(=O)[C@H](CCN)NC(=O)[C@H](CCN)NC(=O)[C@H](CC(C)C)NC(=O)[C@@H](Cc2ccccc2)NC(=O)[C@H](CCN)NC1=O)[C@@H](C)O (X2-T[dDap][Dab][Dab][dF]L[Dab][Dab]T; lactam 3-C) |  | 4 µg/mL (≈ 3.46 µM) | 2 µg/mL (≈ 1.73 µM) | 2 µg/mL (≈ 1.73 µM) | 2.9
CC(C)C[C@@H]1NC(=O)[C@@H](Cc2ccccc2)NC(=O)[C@H](CCN)NC(=O)[C@@H](NC(=O)[C@H](CCN)NC(=O)[C@@H](NC(=O)OCCSSCc2cccc(Cl)c2)[C@@H](C)O)CCNC(=O)[C@H]([C@@H](C)O)NC(=O)[C@H](CCN)NC(=O)[C@H](CCN)NC1=O (X3-T[Dab][Dab][Dab][dF]L[Dab][Dab]T; lactam 3-C) |  | 4 µg/mL (≈ 3.27 µM) | 1 µg/mL (≈ 0.817 µM) | 1 µg/mL (≈ 0.817 µM) | 1.3
CC(C)C[C@@H]1NC(=O)[C@@H](Cc2ccccc2)NC(=O)[C@H](CCN)NC(=O)[C@@H](NC(=O)[C@H](CN)NC(=O)[C@@H](NC(=O)OCCSSCc2cccc(Cl)c2)[C@@H](C)O)CCNC(=O)[C@H]([C@@H](C)O)NC(=O)[C@H](CCN)NC(=O)[C@H](CCN)NC1=O (X3-T[Dap][Dab][Dab][dF]L[Dab][Dab]T; lactam 3-C) |  | 8 µg/mL (≈ 6.61 µM) | 4 µg/mL (≈ 3.31 µM) | 4 µg/mL (≈ 3.31 µM) | 0.8
CC(C)C[C@@H]1NC(=O)[C@@H](Cc2ccccc2)NC(=O)[C@H](CCN)NC(=O)[C@@H](NC(=O)[C@H](CCN)NC(=O)[C@@H](NC(=O)CCSSc2ccc(Oc3ccccc3)cc2)[C@@H](C)O)CCNC(=O)[C@H]([C@@H](C)O)NC(=O)[C@H](CCN)NC(=O)[C@H](CCN)NC1=O ([Mpa](Phenylthio(4-OPh))T[Dab][Dab][Dab][dF]L[Dab][Dab]T; lactam 4-C) |  | 8 µg/mL (≈ 6.39 µM) | 2 µg/mL (≈ 1.6 µM) | 2 µg/mL (≈ 1.6 µM) | 
CC(C)C[C@@H]1NC(=O)[C@@H](Cc2ccccc2)NC(=O)[C@H](CCN)NC(=O)[C@@H](NC(=O)[C@H](CCN)NC(=O)[C@@H](NC(=O)CCSSCCC2CCCCC2)[C@@H](C)O)CCNC(=O)[C@H]([C@@H](C)O)NC(=O)[C@H](CCN)NC(=O)[C@H](CCN)NC1=O ([Mpa](S(2-cyclohexylethyl))T[Dab][Dab][Dab][dF]L[Dab][Dab]T; lactam 4-C) |  | 4 µg/mL (≈ 3.35 µM) | 2 µg/mL (≈ 1.68 µM) | 2 µg/mL (≈ 1.68 µM) | 
CC(C)C[C@@H]1NC(=O)[C@@H](Cc2ccccc2)NC(=O)[C@H](CCN)NC(=O)[C@@H](NC(=O)[C@H](CCN)NC(=O)[C@@H](NC(=O)CCSSc2ccc(-c3ccccc3)cc2)[C@@H](C)O)CCNC(=O)[C@H]([C@@H](C)O)NC(=O)[C@H](CCN)NC(=O)[C@H](CCN)NC1=O ([Mpa](X4)T[Dab][Dab][Dab][dF]L[Dab][Dab]T; lactam 4-C) |  | 8 µg/mL (≈ 6.47 µM) | 2 µg/mL (≈ 1.62 µM) | 4 µg/mL (≈ 3.24 µM) | 
CC(C)CCCCSSCCC(=O)N[C@H](C(=O)N[C@@H](CCN)C(=O)N[C@H]1CCNC(=O)[C@H]([C@@H](C)O)NC(=O)[C@H](CCN)NC(=O)[C@H](CCN)NC(=O)[C@H](CC(C)C)NC(=O)[C@@H](Cc2ccccc2)NC(=O)[C@H](CCN)NC1=O)[C@@H](C)O ([Mpa](X5)T[Dab][Dab][Dab][dF]L[Dab][Dab]T; lactam 4-C) |  | 4 µg/mL (≈ 3.39 µM) | 2 µg/mL (≈ 1.69 µM) | 2 µg/mL (≈ 1.69 µM) | 
CC(C)C[C@@H]1NC(=O)[C@@H](Cc2ccccc2)NC(=O)[C@H](CCN)NC(=O)[C@@H](NC(=O)[C@H](CCN)NC(=O)[C@@H](NC(=O)[C@H](N)CSSCCC2CCCCC2)[C@@H](C)O)CCNC(=O)[C@H]([C@@H](C)O)NC(=O)[C@H](CCN)NC(=O)[C@H](CCN)NC1=O [drawing 128] (H-[dC](S(2-cyclohexylethyl))T[Dab][Dab][Dab][dF]L[Dab][Dab]T; lactam 4-C) | 0.5 µg/mL (≈ 0.414 µM) | 1 µg/mL (≈ 0.827 µM) |  | 2 µg/mL (≈ 1.65 µM) | 1.2
